In patent US20140088073A1, “METHODS FOR DETERMINING WHETHER A PATIENT SHOULD BE ADMINISTERED A DRUG THAT INHIBITS CHOLESTEROL ABSORPTION” (Boston Heart Diagnostics Corporation, priority 2012, published 2014):

How the values were obtained:
[1] = test system: hypercholesterolemic subjects; experiment: EASE study post hoc analysis: plasma lipids, apolipoproteins and hs-CRP, ezetimibe add-on to ongoing statin therapy; format: in vivo, human; details: for Triglyceride / Apo A1 / Apo B / HDL-C / Non-HDL-C / Total C / Total C/HDL-C ratio / LDL-C / hs-CRP: baseline during ongoing statin therapy, by statin type; for Apo A1 / Apo B / HDL-C / Non-HDL-C / Total C / Total C/HDL-C ratio / LDL-C: mean ± SD; for LDL-C: Friedewald formula; for hs-CRP: median ± robust SD; for reductions from baseline in LDL-C / mean percent LDL-C reduction / percent LDL-C reduction from baseline: 6 weeks; for reductions from baseline in LDL-C: unadjusted data; for mean percent LDL-C reduction / percent change from baseline in LDL-C / percent change from baseline in non-HDL-C / percent change from baseline in total C/HDL-C: ezetimibe add-on
Protocol: (§1) Briefly, hypercholesterolemic subjects (n=874) on statins received ezetimibe 10 mg/day. Plasma lipids, lathosterol, and β-sitosterol were measured at baseline and on treatment.
(§2) This study included subjects from the ezetimibe add-on to statin arm of the EASE study (http://clinicaltrials.gov identifier NCT00092586; Study Protocol 040). Details of the study design and outcomes have been published previously. (See Pearson T A, Denke M A, McBride P E, Battisti W P, Brady W E, Palmisano J. A community-based, randomized trial of ezetimibe added to statin therapy to attain NCEP ATP III goals for LDL cholesterol in hypercholesterolemic patients: the ezetimibe add-on to statin for effectiveness (EASE) trial. Mayo Clin Proc 2005; 80:587-95; Pearson T A, Denke M A, McBride P E, et al. Effectiveness of ezetimibe added to ongoing statin therapy in modifying lipid profiles and low-density lipoprotein cholesterol goal attainment in patients of different races and ethnicities: a substudy of the Ezetimibe add-on to statin for effectiveness trial. Mayo Clin Proc 2006; 81:1177-85.)
(§3) Briefly, the EASE study was a multicenter, randomized, double-blind, placebo-controlled, 6-week parallel-group study. Participants with hypercholesterolemia were recruited from community based practices across the United States. Inclusion criteria were: 1) age ≧18 years, 2) on a stable, approved dose of any statin, 3) following a cholesterol-lowering diet for ≧6 weeks before study entry, and 4) LDL-C levels above risk-based NCEP ATP III targets. Subjects receiving lipid-altering agents other than statins during the 6 weeks before screening were excluded. Patients were randomized to receive ezetimibe 10 mg/day or placebo plus their current statin therapy and dose for 6 weeks. Statin type and dose were maintained throughout the study. The research protocol was approved by the investigational review boards at each site, and all participants provided written informed consent prior to study start.
(§4) For this current post hoc analysis, we assessed subjects who were randomized into the ezetimibe 10 mg plus statin arm of the EASE study (n=1940). Of the 1124 subjects with samples available for measurement, only those who had complete sterol and lipid data at baseline and at the end of the 6-week study were included in this analysis (n=874). The mean age and other baseline characteristics of those included and excluded from this analysis were similar. Comparison of subjects was based on statin type or potency (low, medium, high) subgroups. The low potency statin group (predicted LDL-C reduction of ˜20-30%) included subjects receiving simvastatin ≦10 mg/day, lovastatin ≦20 mg/day, pravastatin ≦20 mg/day, and fluvastatin ≦40 mg/day. The medium potency statin group (predicted LDL-C reduction of ˜31-45%) included subjects receiving simvastatin >10 to ≦40 mg/day, atorvastatin ≦20 mg/day, lovastatin >20 to 80 mg/day, pravastatin >20 to 80 mg/day, and fluvastatin >40 to 80 mg/day.
(§5) Plasma total cholesterol (total C), high-density lipoprotein cholesterol (HDL-C), and triglycerides (TG) were analyzed using standardized methods at the central laboratory of the trial (PPD Global Central Labs, Highland Heights, Kentucky, USA). LDL-C was calculated using the Friedewald formula. (See Friedewald W T, Levy R I, Fredrickson D S. Estimation of the concentration of low-density lipoprotein cholesterol in plasma, without use of the preparative ultracentrifuge. Clin Chem 1972; 18:499-502.) Non-HDL-C was calculated by subtracting HDL-C from total C. Apolipoprotein (Apo) A-I, Apo B, and high-sensitivity C-reactive protein (hs-CRP) were measured by automated immunoassays at the central laboratory. Within and between coefficients for all assays were <10%. Plasma lathosterol and β-sitosterol were quantified by gas chromatography mass spectrometry after lipid extraction as previously described in Sudhop T, Lutjohann D, Kodal A, et al. Inhibition of intestinal cholesterol absorption by ezetimibe in humans. […]

[2] = test system: patients with coronary heart disease; details: comparing sterol/cholesterol ratios; previous studies; cited from earlier work
[3] = test system: hypercholesterolemic subjects; experiment: EASE study post hoc analysis: plasma lathosterol and β-sitosterol by gas chromatography mass spectrometry; format: in vivo, human; details: for B-sitosterol / B-sitosterol/Lathosterol / B-sitosterol/Total C / Lathosterol / Lathosterol/Total C: baseline during ongoing statin therapy, by statin type, mean ± SD
Protocol: as §1, §2, §3, §4, §5

[4] = literature; cited from earlier work
[5] = subjects with baseline sitosterol/lathosterol above the median
[6] = subjects with baseline sitosterol/lathosterol ≦ the median
[7] = overall study population, ezetimibe add-on to statin, 6 weeks

CC(C)c1c(C(=O)Nc2ccccc2)c(-c2ccccc2)c(-c2ccc(F)cc2)n1CC[C@@H](O)C[C@@H](O)CC(=O)O [Atorvastatin, atorvastatin]
Triglyceride [1]: 149.0 ± 85.6 mg/dL | Apo A1 [1]: 156.3 ± 26.1 mg/dL | Apo B [1]: 129.2 ± 25.4 mg/dL | HDL-C [1]: 47.8 ± 10.7 mg/dL | Non-HDL-C [1]: 162.0 ± 33.6 mg/dL | Total C [1]: 209.7 ± 35.4 mg/dL | Total C/HDL-C ratio [1]: 4.55 ± 1.05 | LDL-C [1]: 130.0 ± 30.9 mg/dL | hs-CRP [1]: 2.40 ± 3.53 mg/L | increase of plant sterols [2]: 82% | reduction of precursor sterols [2]: −50% | B-sitosterol [3]: 5.40 ± 2.93 µmol/L | B-sitosterol/Lathosterol [3]: 4.22 ± 4.39 | B-sitosterol/Total C [3]: 1.01 ± 0.57 μmol/mmol | Lathosterol [3]: 2.20 ± 1.70 µmol/L | Lathosterol/Total C [3]: 0.39 ± 0.26 μmol/mmol

CC[C@H](C)C(=O)O[C@H]1C[C@H](O)C=C2C=C[C@H](C)[C@H](CC[C@@H](O)C[C@@H](O)CC(=O)O)[C@H]21 [Pravastatin, pravastatin]
Triglyceride [1]: 155.0 ± 80.0 mg/dL | Apo A1 [1]: 160.5 ± 28.2 mg/dL | Apo B [1]: 131.3 ± 26.0 mg/dL | HDL-C [1]: 48.6 ± 12.0 mg/dL | Non-HDL-C [1]: 166.9 ± 34.5 mg/dL | Total C [1]: 215.5 ± 34.9 mg/dL | Total C/HDL-C ratio [1]: 4.65 ± 1.25 | LDL-C [1]: 133.1 ± 28.3 mg/dL | hs-CRP [1]: 2.70 ± 4.09 mg/L | B-sitosterol [3]: 4.72 ± 2.51 µmol/L | B-sitosterol/Lathosterol [3]: 2.11 ± 2.10 | B-sitosterol/Total C [3]: 0.86 ± 0.48 μmol/mmol | Lathosterol [3]: 3.08 ± 1.69 µmol/L | Lathosterol/Total C [3]: 0.55 ± 0.26 μmol/mmol

CCC(C)(C)C(=O)O[C@H]1C[C@@H](C)C=C2C=C[C@H](C)[C@H](CC[C@@H]3C[C@@H](O)CC(=O)O3)[C@H]21 [Simvastatin, simvastatin]
Triglyceride [1]: 149.0 ± 88.4 mg/dL | Apo A1 [1]: 157.7 ± 26.3 mg/dL | Apo B [1]: 125.8 ± 23.2 mg/dL | HDL-C [1]: 48.2 ± 11.8 mg/dL | Non-HDL-C [1]: 157.4 ± 30.2 mg/dL | Total C [1]: 205.5 ± 31.4 mg/dL | Total C/HDL-C ratio [1]: 4.46 ± 1.10 | LDL-C [1]: 124.3 ± 26.1 mg/dL | hs-CRP [1]: 2.50 ± 3.81 mg/L | B-sitosterol [3]: 4.33 ± 2.17 µmol/L | B-sitosterol/Total C [3]: 0.82 ± 0.40 μmol/mmol | Lathosterol [3]: 2.47 ± 1.68 µmol/L | Lathosterol/Total C [3]: 0.46 ± 0.28 μmol/mmol

O=C1[C@H](CC[C@H](O)c2ccc(F)cc2)[C@@H](c2ccc(O)cc2)N1c1ccc(F)cc1 [ezetimibe]
reduces LDL-C levels by [4]: 15-20% | LDL-C lowered by ([1]; addition of ezetimibe to any statin): 23-26% | reductions from baseline in LDL-C ([1]; ezetimibe 10 mg/day added to ongoing high potency statin): −29.1% | reductions from baseline in LDL-C ([1]; ezetimibe 10 mg/day added to ongoing low potency statin): −22.7% | reductions from baseline in LDL-C ([1]; ezetimibe 10 mg/day added to ongoing medium potency statin): −25.0% | mean percent LDL-C reduction ([1]; high potency statin group): 29.1% | mean percent LDL-C reduction ([1]; low potency statin group): 22.7% | mean percent LDL-C reduction ([1]; medium potency statin group): 25.0% | percent change from baseline in LDL-C [1, 5]: −26.7% | percent change from baseline in non-HDL-C [1, 5]: −24.2% | percent change from baseline in total C/HDL-C [1, 5]: −19.0% | percent change from baseline in LDL-C [1, 6]: −24.1% | percent change from baseline in non-HDL-C [1, 6]: −21.6% | percent change from baseline in total C/HDL-C [1, 6]: −17.0% | percent LDL-C reduction from baseline ([1]; ezetimibe combination with ongoing atorvastatin): 26.4% | percent LDL-C reduction from baseline ([1]; ezetimibe combination with ongoing lovastatin or fluvastatin): 24.1% | percent LDL-C reduction from baseline ([1]; ezetimibe combination with ongoing pravastatin): 23.1% | percent LDL-C reduction from baseline ([1]; ezetimibe combination with ongoing simvastatin): 26.4% | mean lathosterol levels increased by [3, 7]: 52% | mean lathosterol/cholesterol ratio increased by [3, 7]: 83.8% | mean β-sitosterol levels decreased by [3, 7]: 47.4% | mean β-sitosterol/cholesterol ratio decreased by [3, 7]: 36.3% | overall percent change in the mean β-sitosterol/lathosterol ratio [3, 7]: −52.4%
